In article PMC8880268, “Magnolol and Luteolin Inhibition of α-Glucosidase Activity: Kinetics and Type of Interaction Detected by In Vitro and In Silico Studies” (Pharmaceuticals, 2022):
Entries after “also recorded” stand apart in the source; their conditions may differ. Where two headings read alike, the source gives them in different places.

How the values were obtained:
α-glucosidase [1] = biological target: T1, α-glucosidase (Saccharomyces cerevisiae, UniProt P38158); assay: Inactivation kinetics, time course of α-glucosidase activity; type: biochemical; settings: enzyme 0.075 µM, pNPG 2 mM
T1 construct: purchased Merck KGaA, Darmstadt, Germany
T1 sequence (P38158 whole entry): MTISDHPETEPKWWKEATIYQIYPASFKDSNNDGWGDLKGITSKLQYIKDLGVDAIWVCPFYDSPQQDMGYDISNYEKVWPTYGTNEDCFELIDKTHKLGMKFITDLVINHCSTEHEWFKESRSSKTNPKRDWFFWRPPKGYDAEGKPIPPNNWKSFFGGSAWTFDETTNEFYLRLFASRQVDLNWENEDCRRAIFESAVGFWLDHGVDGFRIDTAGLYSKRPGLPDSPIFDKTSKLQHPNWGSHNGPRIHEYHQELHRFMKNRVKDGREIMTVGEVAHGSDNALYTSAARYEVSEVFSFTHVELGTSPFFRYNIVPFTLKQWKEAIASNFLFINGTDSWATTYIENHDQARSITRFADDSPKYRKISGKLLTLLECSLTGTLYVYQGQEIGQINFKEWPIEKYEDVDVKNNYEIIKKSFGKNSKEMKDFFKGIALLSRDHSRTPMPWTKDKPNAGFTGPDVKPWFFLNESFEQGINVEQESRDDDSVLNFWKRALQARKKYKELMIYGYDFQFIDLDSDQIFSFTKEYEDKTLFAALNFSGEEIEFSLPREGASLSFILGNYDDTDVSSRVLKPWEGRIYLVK
Procedure: The enzyme and substrate concentrations were 0.075 µM and 2 mM, respectively.

α-glucosidase [2] = biological target: T1, α-glucosidase; assay: Yeast α-glucosidase inhibitory assay (pNPG substrate, absorbance 405 nm); type: biochemical; settings: for reversibility of inhibition: plots v vs. [α-glucosidase] at different inhibitor concentrations; for IC50: 2 mM pNPG
Procedure: α-Glucosidase inhibitory activity was determined according to a previous method. Briefly, 0.1 mM PBS (pH 6.8) was used to dissolve α-glucosidase and pNPG. In detail, 80 μL of PBS or 80 μL of test sample were added to 96-well plates. Successively, 20 μL of enzyme (0.025–0.125 µM) were added to each well. Magnolol (10–100 μM) and luteolin (5–50 μM) were prepared in DMSO (<1% v/v). […] Each sample was incubated with α-glucosidase for 10 min at 37 °C. The reaction started by adding 200 μL of pNPG (2 mM). The absorbance values were detected at 405 nm for 60 min, using a PerkinElmer Victor Nivo microplate spectrophotometer (Waltham, MA, USA). The α-glucosidase activity in the absence of inhibitors was defined as 100%. The half-maximal inhibitory concentration (IC50) was estimated by plot of relative enzymatic activity vs. inhibitor concentration.

α-glucosidase [3] = biological target: T1, α-glucosidase; assay: Fluorescence quenching analysis and thermodynamic parameters; type: binding; settings: for ΔG° (free energy change) / ΔH° (enthalpy change) / ∆S° (entropy change): Van ’t Hoff equation; for Ksv (Stern–Volmer quenching constant): pH 6.8, α-glucosidase 0.35 µM; for ΔH° (enthalpy change) / ∆S° (entropy change): 298–310 K; for number of binding sites: no temperature stated; for Kd: read-out: Ka (binding constant) (converted)
Procedure: The interaction of inhibitors with α-glucosidase was studied using the fluorescence quenching method. […] Measurements were made in the emission range of 300–450 nm, with an excitation of 280 nm, after 10 min of stabilization. The fluorescent spectra of α-glucosidase (0.35 µM) and each inhibitor (0–1.0 µM) were carried out at three different temperatures (298, 304, and 310 K) and the bandwidths were set at 5 nm for both emission and excitation slits. For each sample, three fluorescence spectra were acquired, and the blank was subtracted. The compound quenching mechanism was assessed using the Stern–Volmer equation: F0 / F = 1 + Ksv[Q] = 1 + Kq^.τo[Q], where F0 and F are the fluorescence measure in absence and in presence of different concentrations of quencher, respectively; Ksv is the Stern–Volmer quenching constant; Kq is the coefficient of quencher rate coefficient; τ0 is the life time of the excited state; and [Q] is the concentration of the quencher.
Further elaboration of the equilibrium within the free and bound molecules can be achieved through the analysis of the fluorescence emission data utilizing the following equation: log (F0 − F) / F = log Ka + n log [Q], which obtains the binding constant (Ka) and the number of binding sites per protein (n) for the enzyme-inhibitor system.
Thermodynamic spontaneity is an important factor in the study of protein-ligand interaction. A system tends not only toward a lower energy state (enthalpy, ΔH), but also according to a state of disorder (entropy, ΔS). Thermodynamic parameters were obtained according to the Van ’t Hoff equation and the plot of “log Ka vs. 1/T”. The trade-off between enthalpy (ΔH°) and entropy (ΔS°) is used to obtain the standard free energy variation (ΔG°).

α-glucosidase [4] = biological target: T1, α-glucosidase; assay: Kinetic analysis of yeast α-glucosidase inhibition (Michaelis–Menten and Lineweaver–Burk plots); type: biochemical; settings: for type of inhibition: Michaelis–Menten and Lineweaver–Burk plots; for Kcat of α-glucosidase: 0.075 µM α-glucosidase
Procedure: The type of enzyme inhibition exerted by inhibitors was evaluated from kinetic studies using different substrate concentrations (0.25–2.5 mM pNPG) applying Michaelis–Menten and Lineweaver–Burk plots. Inhibition constants (Ki) were determined by plots of the Y-intercept of the Lineweaver–Burk plot vs. inhibitor concentration.

α-glucosidase [5] = biological target: T1, α-glucosidase; assay: Synchronous fluorescence spectra; settings: pH 6.8, 298 K
Excerpt: The application of this method allows the identification of conformational changes in proteins according to the spectroscopic behavior of the tyrosine and tryptophan residues. Synchronous fluorescence spectra were collected in the emission range of 260–320 nm. The difference between excitation and emission wavelength (Δλ) was established at 15 nm (tyrosine residues) or at 60 nm (tryptophan residues).

α-glucosidase [6] = biological target: T1, α-glucosidase; assay: Non-radiation energy transfer (Förster resonance energy transfer) distance; type: binding; settings: room temperature, pH 6.8, 0.35 µM
Procedure: The distance between magnolol and α-glucosidase was calculated according to the theory of Förster resonance energy transfer. To calculate the distance (r) between the donor and the acceptor, the emission wavelength of α-glucosidase was overlapped with the absorption band of the inhibitor. The fluorescence spectrum and the UV absorption spectrum of the inhibitor were collected in the wavelength range of 300–500 nm, at room temperature, pH 6.8, and at a concentration of 0.35 µM.

α-glucosidase [7] = settings: ref 19; cited from earlier work

C[C@H]1O[C@H](O[C@H]2[C@H](O)[C@@H](O)[C@@H](O[C@H]3[C@H](O)[C@@H](O)C(O)O[C@@H]3CO)O[C@@H]2CO)[C@H](O)[C@@H](O)[C@@H]1N[C@H]1C=C(CO)[C@@H](O)[C@H](O)[C@H]1O (stereo partly drawn) [Acarbose, reference compound]
Inactivation rate constant K (α-glucosidase [1]; inhibitor 200 µM): 2.76 ± 0.07 10^−4 s^−1 | Inactivation rate constant K (α-glucosidase [1]; inhibitor 400 µM): 2.81 ± 0.07 10^−4 s^−1 | Inactivation rate constant K (α-glucosidase [1]; inhibitor 800 µM): 2.83 ± 0.05 10^−4 s^−1 | Inactivation rate constant K (α-glucosidase [1]; inhibitor 1600 µM): 2.84 ± 0.03 10^−4 s^−1 | Inactivation rate constant K (α-glucosidase [1]; inhibitor 3200 µM): 2.85 ± 0.01 10^−4 s^−1 | Inactivation rate constant K (α-glucosidase [1]; inhibitor 4000 µM): 2.85 ± 0.09 10^−4 s^−1 | reversibility of inhibition (α-glucosidase [2]): reversible inhibition | Kq (bimolecular quenching constant) (α-glucosidase [3]; 298 K): 3.75 ± 0.041 10^13 M^−1 s^−1 | n (number of binding sites) (α-glucosidase [3]; 298 K): 1.77 | ΔG° (free energy change) (α-glucosidase [3]; 298 K): 0.621 kcal/mol | Ksv (Stern–Volmer quenching constant) (α-glucosidase [3]; 298 K): 3.75 ± 0.04 10^5 M^−1 | ΔH° (enthalpy change) (α-glucosidase [3]): -10.88 kcal/mol | ∆S° (entropy change) (α-glucosidase [3]): −161.47 J mol^−1K^−1 | Kq (bimolecular quenching constant) (α-glucosidase [3]; 304 K): 1.89 ± 0.014 10^13 M^−1 s^−1 | n (number of binding sites) (α-glucosidase [3]; 304 K): 1.38 | ΔG° (free energy change) (α-glucosidase [3]; 304 K): 0.853 kcal/mol | Ksv (Stern–Volmer quenching constant) (α-glucosidase [3]; 304 K): 1.89 ± 0.01 10^5 M^−1 | Kq (bimolecular quenching constant) (α-glucosidase [3]; 310 K): 1.80 ± 0.020 10^13 M^−1 s^−1 | n (number of binding sites) (α-glucosidase [3]; 310 K): 1.36 | ΔG° (free energy change) (α-glucosidase [3]; 310 K): 1.09 kcal/mol | Ksv (Stern–Volmer quenching constant) (α-glucosidase [3]; 310 K): 1.80 ± 0.02 10^5 M^−1 | number of binding sites (α-glucosidase [3]): approximately 1 | type of inhibition (α-glucosidase [4]): competitive inhibitor | Kcat of α-glucosidase (α-glucosidase [4]; inhibitor 200 µM): 2.83 ± 0.33 s⁻¹ | Vmax of α-glucosidase (α-glucosidase [4]; inhibitor 200 µM, converted using the Lambert–Beer relationship): 12.7 ± 1.50 µM/min | Kcat of α-glucosidase (α-glucosidase [4]; inhibitor 400 µM): 2.87 ± 0.39 s⁻¹ | Vmax of α-glucosidase (α-glucosidase [4]; inhibitor 400 µM, converted using the Lambert–Beer relationship): 12.9 ± 1.70 µM/min | Kcat of α-glucosidase (α-glucosidase [4]; inhibitor 800 µM): 2.77 ± 0.44 s⁻¹ | Vmax of α-glucosidase (α-glucosidase [4]; inhibitor 800 µM, converted using the Lambert–Beer relationship): 12.4 ± 2.00 µM/min | Vmax of α-glucosidase (α-glucosidase [4]; inhibitor 1600 µM): 0.120 ± 0.016 ΔΟD/min | Kcat of α-glucosidase (α-glucosidase [4]; inhibitor 1600 µM): 2.66 ± 0.36 s⁻¹ | Vmax of α-glucosidase (α-glucosidase [4]; inhibitor 1600 µM, converted using the Lambert–Beer relationship): 12.0 ± 1.60 µM/min | Kcat of α-glucosidase (α-glucosidase [4]; inhibitor 3200 µM): 2.79 ± 0.67 s⁻¹ | Vmax of α-glucosidase (α-glucosidase [4]; inhibitor 3200 µM, converted using the Lambert–Beer relationship): 12.5 ± 3.00 µM/min | Kcat of α-glucosidase (α-glucosidase [4]; inhibitor 4000 µM): 3.12 ± 1.04 s⁻¹ | Vmax of α-glucosidase (α-glucosidase [4]; inhibitor 4000 µM, converted using the Lambert–Beer relationship): 14.1 ± 4.70 µM/min

C=CCc1ccc(O)c(-c2cc(CC=C)ccc2O)c1 [Magnolol, 5,5′-diallyl-biphenyl-2,2′-diol]
Inactivation rate constant K (α-glucosidase [1]; inhibitor 10 µM): 2.78 ± 0.05 10^−4 s^−1 | Inactivation rate constant K (α-glucosidase [1]; inhibitor 25 µM): 2.81 ± 0.03 10^−4 s^−1 | Inactivation rate constant K (α-glucosidase [1]; inhibitor 50 µM): 2.81 ± 0.01 10^−4 s^−1 | Inactivation rate constant K (α-glucosidase [1]; inhibitor 100 µM): 2.85 ± 0.08 10^−4 s^−1 | shift of synchronous fluorescence maximum (α-glucosidase [5]; ∆λ = 15 nm (tyrosine residues)): red shift from 286 to 290 | shift of synchronous fluorescence maximum (α-glucosidase [5]; ∆λ = 60 nm (tryptophan residues)): no modification | calculated distance between inhibitor and α-glucosidase (α-glucosidase [6]): 2.06 nm | IC50 (α-glucosidase [2]; IC50, α-glucosidase 0.025 × 10^−6 M): 28.3 ± 10.7 µM | IC50 (α-glucosidase [2]; IC50, α-glucosidase 0.05 × 10^−6 M): 28.5 ± 11 µM | IC50 (α-glucosidase [2]; IC50, α-glucosidase 0.075 × 10^−6 M): 32.6 ± 10.5 µM | IC50 (α-glucosidase [2]; IC50, α-glucosidase 0.125 × 10^−6 M): 35.5 ± 10.2 µM | reversibility of inhibition (α-glucosidase [2]): reversible inhibition | IC50 (α-glucosidase [2]; −Log IC50, α-glucosidase 0.05 × 10^−6 M): 28.2 µM | Kq (bimolecular quenching constant) (α-glucosidase [3]; 298 K): 3.90 ± 0.007 10^13 M^−1 s^−1 | n (number of binding sites) (α-glucosidase [3]; 298 K): 0.39 | Ksv (Stern–Volmer quenching constant) (α-glucosidase [3]; 298 K): 3.89 ± 0.01 10^5 M^−1 | Kd (α-glucosidase [3]; 298 K): 3.37 µM | ΔH° (enthalpy change) (α-glucosidase [3]): 9.376 kcal/mol | ∆S° (entropy change) (α-glucosidase [3]): 121.83 J mol^−1K^−1 | Kq (bimolecular quenching constant) (α-glucosidase [3]; 304 K): 4.22 ± 0.011 10^13 M^−1 s^−1 | n (number of binding sites) (α-glucosidase [3]; 304 K): 0.42 | ΔG° (free energy change) (α-glucosidase [3]; 304 K): -0.523 kcal/mol | Ksv (Stern–Volmer quenching constant) (α-glucosidase [3]; 304 K): 4.22 ± 0.01 10^5 M^−1 | Kd (α-glucosidase [3]; 304 K): 2.2 µM | Kq (bimolecular quenching constant) (α-glucosidase [3]; 310 K): 5.30 ± 0.022 10^13 M^−1 s^−1 | n (number of binding sites) (α-glucosidase [3]; 310 K): 0.65 | ΔG° (free energy change) (α-glucosidase [3]; 310 K): -0.349 kcal/mol | Ksv (Stern–Volmer quenching constant) (α-glucosidase [3]; 310 K): 5.30 ± 0.02 10^5 M^−1 | Kd (α-glucosidase [3]; 310 K): 1.82 µM | fluorescence quenching mechanism (α-glucosidase [3]; based on Ksv and Kq values): static-dynamic quenching process | number of binding sites (α-glucosidase [3]): ~0.6 | type of inhibition (α-glucosidase [4]): mixed-type antagonism | type of inhibition (α-glucosidase [4]; listed as magnolol): mixed-type inhibition; also recorded: mixed-type inhibitor; also recorded: reversible mixed-type interaction | Kcat of α-glucosidase (α-glucosidase [4]; inhibitor 10 µM): 3.59 ± 0.17 s⁻¹ | Vmax of α-glucosidase (α-glucosidase [4]; inhibitor 10 µM, converted using the Lambert–Beer relationship): 16.2 ± 0.80 µM/min | Kcat of α-glucosidase (α-glucosidase [4]; inhibitor 25 µM): 3.29 ± 0.15 s⁻¹ | Vmax of α-glucosidase (α-glucosidase [4]; inhibitor 25 µM, converted using the Lambert–Beer relationship): 14.8 ± 0.70 µM/min | Kcat of α-glucosidase (α-glucosidase [4]; inhibitor 50 µM): 2.86 ± 0.13 s⁻¹ | Vmax of α-glucosidase (α-glucosidase [4]; inhibitor 50 µM, converted using the Lambert–Beer relationship): 12.9 ± 0.60 µM/min | Kcat of α-glucosidase (α-glucosidase [4]; inhibitor 100 µM): 2.22 ± 0.29 s⁻¹ | Vmax of α-glucosidase (α-glucosidase [4]; inhibitor 100 µM, converted using the Lambert–Beer relationship): 10.0 ± 1.30 µM/min

O=c1c(O)c(-c2ccc(O)cc2)oc2cc(O)cc(O)c12 [compound 1, kaempferol]
type of inhibition (inhibition kinetic assays) (α-glucosidase [7]): non-competitive inhibitors
